{"source": "patent US9734283B2", "about": "“Genomic features associated with epigenetic control regions and transgenerational inheritance of epimutations” (priority 2011, dated 2017)", "type_in_all_cases": "in vivo, mouse", "key": {"caudal epididymal sperm": {"test_system": "caudal epididymal sperm", "assay": "Epididymal sperm motility and concentration analyses", "protocol": "The sperm motility was determined using caudal epididymal sperm. The epididymis was dissected free of connective tissue and a small cut made to the cauda. The tissue was placed in 2 ml F12 culture medium containing 0.1% BSA for 10 minutes at 37° C. Fifty microliters was placed on a warm slide and gently cover-slipped. The specimen was immediately examined using phase contrast microscopy with 200×magnification. The sperm motility assays examined rapid progressive, slow progressive and non-progressive motility according to WHO category.^51 The ratio of motile sperm to the total number of sperm, including immotile sperm, was calculated. Approximately 50-100 sperm were counted per microscopic field. The procedure was repeated at least twice with a new specimen from the same epididymis. Epididymal sperm count was determined using the same epididymis according to a previously described method with some modifications.^25, 52 Briefly, the epididymis that was placed in the 2 ml of culture medium was minced. The tissue pieces were stored at 4° C. for 48 hours to immobilize the sperm. Three independent sperm samples were counted using a hemocytometer. The counts were averaged and used as a replicate in statistical analysis. The control and vinclozolin generation analysis and the control and flutamide generation analysis for an individual experiment were done at the same time. All analyses were done blinded, such that different individuals were used for collection and counting."}, "CD-1 mice ovaries": {"test_system": "CD-1 mice ovaries", "assay": "Identification of ovarian cysts in vinclozolin lineage females", "details": "CD-1 females, all F1-F3 generations, V2 200 mg/kg/day; p<0.05", "protocol": "Abnormalities in adult females of the F1, F2 and F3 generations were not extensively evaluated. However, at the time of sacrifice and dissection it was noticed that some females had cystic structures on their ovaries. These were grossly visible fluid-filled structures larger than normal Graffian follicles. If an animal had one or more cystic structures on one or both ovaries, then that female was considered to have cystic ovaries. A sub-set of 17 ovaries was also evaluated histologically, and there was concordance of ovaries labeled as cystic at gross dissection with the histologic presence of very large cystic structures. Cysts were defined as structures having a lining of none or a single layer of granulosa cells and an increased thickness of the surrounding stromal/thecal layer compared to what is found in large antral follicles."}, "[1]": {"test_system": "sperm promoter epigenome (DNA methylation)", "assay": "MeDIP-Chip (Nimblegen promoter tiling array, competitive hybridization) of F3 sperm DNA with qPCR validation", "details": "F3 generation sperm", "protocol": "Sperm heads were separated from tails and purified following the protocol described^53 (without protease inhibitors) from a total of six F3 vinclozolin generation mice and six F3 control generation mice in the range of 13-15 months of age. Sperm heads were then further purified using a 70% sucrose gradient centrifugation, based on the method described.^54 Purified sperm heads were resuspended in 1 ml buffer 0.5M tris-HCl, pH 8, 0.5M EDTA, 10% SDS and treated with 100 μl proteinase K (20 mg/mL) and 100 μl DDT (0.1 M) at 55° C. for 1 hour. DNA was precipitated with 50% isopropanol, washed with 70% ethanol and resuspended in DEPC H20. Individual sperm DNA was used as samples for further methylated DNA immunoprecipitation.^15 Two pools of samples were produced for each experimental treatment (control and vinclozolin), therefore each pool contained DNA from three animals from different litters. The MeDIP was performed as follows: 6 μg of genomic DNA was subjected to series of three 20 pulse sonications at 20% amplitude and the appropriate fragment size (200-1000 bp) was verified through 2% agarose gels; the sonicated genomic DNA was resuspended in 350 μl TE and denaturated for 10 min at 95° C. and then immediately placed on ice for 5 min; 100 μl of 5×IP buffer (50 mM Na-phosphate pH7, 700 mM NaCl, 0.25% Triton X-100) was added to the sonicated and denatured DNA.\nAn overnight incubation of the DNA was performed with 5 μg of antibody anti-5-methylcytidine monoclonal from Diagenode S.A at 4° C. on a rotating platform. Protein A/G beads from Santa Cruz were prewashed on PBS-BSA 0.1% and resuspended in 40 μl 1× IP buffer. Beads were then added to the DNA-antibody complex and incubated 2 h at 4° C. on a rotating platform. Beads bound to DNA-antibody complex were washed 3 times with 1 ml 1×IP buffer; washes included incubation for 5 min at 4° C. on a rotating platform and then centrifugation at 6000 rpm for 2 min. Beads-DNA-antibody complex were then resuspended in 250 μl digestion buffer (50 mM Tris HCl pH 8, 10 mM EDTA, 0.5% SDS) and 3.5 μl of proteinase K (20 mg/ml) was added to each sample and then incubated overnight at 55° C. on a rotating platform. DNA purification was performed first with phenol and then with chloroform: isoamyl alcohol. Two washes were then performed with 70% ethanol, 1 M NaCl and glycogen. MeDIP-selected DNA was then resuspended in 30 μl TE buffer. MeDIP sperm DNA was pooled into each of the four above mentioned groups, adding equal amounts of sperm DNA from each individual sample to the pools. Therefore, a total of four pools of MeDIP sperm DNA (C1, C2, V1 and V2) were used for the ChIP arrays.\nNimblegen Mouse Promoter 3×720K format microarray (Mouse Ref Seq promoter array) was used, each subarray contains 709,520 probes. […]"}}}
{"smiles": "C=CC1(C)OC(=O)N(c2cc(Cl)cc(Cl)c2)C1=O", "note": "(racemic) [vinclozolin, (RS)-3-(3,5-dichlorophenyl)-5-methyl-5-vinyl-1,3-oxazolidine-2,4-dione]", "values": [{"measurement": "mean epididymal sperm concentration", "setting": "caudal epididymal sperm; primarily F1 generation, not observed in 129 strain F2 or F3", "value": "reduction"}, {"measurement": "mean percentage of motile epididymal sperm", "setting": "caudal epididymal sperm; primarily in the F1 generation males", "value": "reduction"}, {"measurement": "ovarian cysts", "setting": "CD-1 mice ovaries", "value": "significant increase"}, {"measurement": "number of confirmed sites with decreased DNA methylation", "setting": "[1]; CD-1", "value": 12}, {"measurement": "number of confirmed sites with increased DNA methylation", "setting": "[1]; CD-1", "value": 28}, {"measurement": "number of promoters with differential DNA methylation regions (DMR), MeDIP-Chip", "setting": "[1]; CD-1, vinclozolin 100 mg/kg/day lineage vs control", "value": 66}, {"measurement": "number of DMR confirmed with qPCR", "setting": "[1]; CD-1, vinclozolin lineage vs control", "value": 40}]}
